Reference: ChEMBL document CHEMBL3585330, “Anticancer activity of koningic acid and semisynthetic derivatives” (Bioorg Med Chem, 2015)
Activity calls are given as the source filed them. The calls are words filed in the database; no cut-off is given here.

Columns and labels:
Assay type in all cases: functional, cell-based
[1] = Antiproliferative activity against human NAMALWA cells assessed as inhibition of cell proliferation incubated for 72 hrs by conventional ATP quantification method; details: NAMALVA
A549 [2] = test: (§1) Antiproliferative activity against human A549 cells assessed as inhibition of cell proliferation incubated for 72 hrs by conventional ATP quantification method; details: A549, 72 h
HCT-116 = test: Antiproliferative activity against human HCT116 cells assessed as inhibition of cell proliferation incubated for 72 hrs by conventional ATP quantification method; details: HCT-116, 72 h
[3] = Antiproliferative activity against human WM266.4 cells assessed as inhibition of cell proliferation incubated for 72 hrs by conventional ATP quantification method; details: WM 266-4, 72 h
A-375 = test: Antiproliferative activity against human A375 cells assessed as inhibition of cell proliferation incubated for 72 hrs by conventional ATP quantification method; details: A-375, 72 h
KM12 = test: Antiproliferative activity against human KM12 cells assessed as inhibition of cell proliferation incubated for 72 hrs by conventional ATP quantification method; details: KM12, 72 h
NCI-H460 = test: Antiproliferative activity against human NCI-H460 cells assessed as inhibition of cell proliferation incubated for 72 hrs by conventional ATP quantification method; details: NCI-H460, 72 h
DU-145 = test: Antiproliferative activity against human DU145 cells assessed as inhibition of cell proliferation incubated for 72 hrs by conventional ATP quantification method; details: DU-145, 72 h
TK-10 = test: Antiproliferative activity against human TK10 cells assessed as inhibition of cell proliferation incubated for 72 hrs by conventional ATP quantification method; details: TK-10, 72 h
HOP-62 = test: Antiproliferative activity against human HOP62 cells assessed as inhibition of cell proliferation incubated for 72 hrs by conventional ATP quantification method; details: HOP-62, 72 h
HT-29 = test: Cytotoxicity against human HT-29 cells incubated for 72 hrs under hypoxic conditions by MTS assay
A549 [4] = test: as §1; details: A549, 72 h; remark: listed apart in the source
T47D = test: Antiproliferative activity against human T47D cells assessed as inhibition of cell proliferation incubated for 72 hrs by conventional ATP quantification method
SK-OV-3 = test: Antiproliferative activity against human SKOV3 cells assessed as inhibition of cell proliferation incubated for 72 hrs by conventional ATP quantification method; details: SK-OV-3, 72 h
OVCAR-3 = test: Antiproliferative activity against human OVCAR3 cells assessed as inhibition of cell proliferation incubated for 72 hrs by conventional ATP quantification method; details: OVCAR-3, 72 h
MDA-MB-231 = test: Cytotoxicity against human MDA-MB-231 cells incubated for 72 hrs under hypoxic conditions by MTS assay

Compound	IC50 (A549 [2])	IC50 (HCT-116)	IC50 (A-375)	IC50 (NCI-H460)	IC50 (DU-145)	IC50 (A549 [4])	IC50 (T47D)	IC50 (SK-OV-3)	IC50 (OVCAR-3)	IC50 [1]	IC50 [3]	IC50 (KM12)	IC50 (TK-10)	IC50 (HOP-62)	Activity (HT-29)	Activity (MDA-MB-231)
COC(=O)C1=C[C@@H]2[C@@H](C(C)C)CC[C@@]3(CO3)[C@H]2C(=O)OC1	450 nM	2190 nM	4090 nM	–	–	–	–	–	–	1740 nM	4100 nM	–	–	–	–	–
CC(C)[C@H]1CC[C@@](O)(CI)[C@H]2C(=O)OCC(C(=O)O)=C[C@H]12	5430 nM	2140 nM	> 10000 nM	–	–	–	–	–	–	3260 nM	10100 nM	–	–	–	–	–
COc1cccc2c1C(=O)c1c(O)c3c(c(O)c1C2=O)C[C@@](O)(C(=O)CO)C[C@@H]3O[C@H]1C[C@H](N)[C@H](O)[C@H](C)O1 [DOXORUBICIN]	30 nM	–	10 nM	20 nM	20 nM	20 nM	20 nM	20 nM	20 nM	–	150 nM	20 nM	20 nM	20 nM	inactive	inactive

Continued, in another order:

IC50 (A549 [2])	IC50 (HCT-116)	IC50 (A-375)	IC50 (NCI-H460)	IC50 (DU-145)	IC50 (A549 [4])	IC50 (T47D)	IC50 (SK-OV-3)	IC50 (OVCAR-3)	Compound	IC50 [1]	IC50 [3]	IC50 (KM12)	IC50 (TK-10)	IC50 (HOP-62)	Activity (HT-29)	Activity (MDA-MB-231)
350 nM	220 nM	1310 nM	–	–	–	–	–	–	CC(C)[C@H]1CC[C@@]2(CO2)[C@H]2C(=O)OCC(C(=O)OCc3ccc(-c4ccccc4)o3)=C[C@H]12	370 nM	960 nM	–	–	–	–	–
> 32000 nM	> 32000 nM	> 32000 nM	–	–	–	–	–	–	CNC(=O)C1=C[C@@H]2[C@@H](C(C)C)CC[C@@](O)(CO)[C@H]2C(=O)OC1	> 32000 nM	> 32000 nM	–	–	–	–	–
> 32000 nM	> 32000 nM	> 32000 nM	–	–	–	–	–	–	CC(C)[C@H]1CC[C@@](O)(CO)[C@H]2C(=O)OCC(C(=O)O)=C[C@H]12	> 32000 nM	> 32000 nM	–	–	–	–	–
